Source: US20100298141A1, “SUBSTITUTED PYRIDINE N-OXIDE HERBICIDES” (E. I. DU PONT DE NEMOURS AND COMPANY, priority 2007, published 2010)

Columns and labels:
morningglory [1] = experiment: Test C pre-/postemergence test; assay type: in vivo, Ipomoea coccinea
How it was run: (§1)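 Compounds in a non-phytotoxic solvent with surfactant applied preemergence to seeded pots and, at the same time, postemergence to plants 2–18 cm tall (1- to 4-leaf stage). Paddy tests: pots flooded to 3 cm, compound applied into the water, depth held throughout.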

wheat = experiment: Test C pre-/postemergence test; assay type: in vivo, Triticum aestivum
How it was run: as §1

blackgrass = experiment: Test C pre-/postemergence test; assay type: in vivo, Alopecurus myosuroides
How it was run: as §1

morningglory [2] = experiment: Test A pre-/postemergence greenhouse test; assay type: in vivo, Ipomoea spp.; conditions: for Morningglory plant response rating: 0 to 100 scale
How it was run: (§2)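 Pre: directed soil spray on seeded loam/sand. Post: foliar spray, plants 2–10 cm, 1–2 leaf stage, applied concurrently. Vehicle: non-phytotoxic solvent + surfactant. Greenhouse ~10 d; visual injury rating vs untreated controls.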

crabgrass = experiment: Test C pre-/postemergence test; assay type: in vivo, Digitaria sanguinalis
How it was run: as §1

woolly cupgrass = experiment: Test C pre-/postemergence test; assay type: in vivo, Eriochloa villosa
How it was run: as §1

umbrella sedge = experiment: Test C flooded paddy test; assay type: in vivo, Cyperus difformis; conditions: Flood
How it was run: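 Test compounds are applied straight into paddy water held 3 cm above the soil surface, with that flood maintained for the whole test. After 13 to 15 days in the greenhouse, each species is scored visually relative to controls.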

soybean = experiment: Test C pre-/postemergence test; assay type: in vivo, Glycine max
How it was run: as §1

pigweed = experiment: Test C pre-/postemergence test; assay type: in vivo, Amaranthus retroflexus
How it was run: as §1

green foxtail = experiment: Test C pre-/postemergence test; assay type: in vivo, Setaria viridis
How it was run: as §1

yellow nutsedge = experiment: Test C pre-/postemergence test; assay type: in vivo, Cyperus esculentus
How it was run: as §1

cocklebur = experiment: Test C pre-/postemergence test; assay type: in vivo, Xanthium strumarium
How it was run: as §1

kochia = experiment: Test C pre-/postemergence test; assay type: in vivo, Kochia scoparia
How it was run: as §1

corn = experiment: Test C pre-/postemergence test; assay type: in vivo, Zea mays
How it was run: as §1

[3] = tested on: common (oilseed) sunflower; experiment: Test C pre-/postemergence test; assay type: in vivo, Helianthus annuus
How it was run: as §1

Italian ryegrass = experiment: Test C pre-/postemergence test; assay type: in vivo, Lolium multiflorum
How it was run: as §1

barnyardgrass = experiment: Test A pre-/postemergence greenhouse test; assay type: in vivo, Echinochloa crus-galli; conditions: for Barnyardgrass plant response rating: 0 to 100 scale
How it was run: as §2

[4] = 62 g ai/ha, Preemergence, scale 0 to 100
[5] = 125 g ai/ha, preemergence, scale 0 (no effect) to 100 (complete control)
[6] = Preemergence, 31 g ai/ha, scale 0 to 100 (0 no effect, 100 complete control)
[7] = preemergence, 250 g ai/ha, scale 0 (no effect) to 100 (complete control)
[8] = Postemergence, 125 g ai/ha, 0 to 100 scale where 0 is no effect and 100 is complete control
[9] = Postemergence, 500 g ai/ha, 0 is no effect, 100 is complete control
[10] = Preemergence, 125 g ai/ha, 0 no effect, 100 complete control
[11] = Preemergence, 500 g ai/ha, 0 no effect, 100 complete control

CC(C)c1cc[n+]([O-])c([S+]([O-])Cc2c(C(F)(F)F)nn(C)c2OC(F)F)c1 (centres unmarked) [Compound 109]
Morningglory plant response rating (morningglory [1]; [4]): 100 | Morningglory plant response rating (morningglory [1]; [5]): 100 | Plant response rating, Morningglory (morningglory [1]; [6]): 80 | Morningglory plant response rating (morningglory [1]; [7]): 100 | Wheat plant response rating (wheat; [4]): 50 | Wheat plant response rating (wheat; [5]): 65 | Plant response rating, Wheat (wheat; [6]): 10 | Wheat plant response rating (wheat; [7]): 100 | Blackgrass plant response rating (blackgrass; [4]): 70 | Blackgrass plant response rating (blackgrass; [5]): 80 | Plant response rating, Blackgrass (blackgrass; [6]): 40 | Blackgrass plant response rating (blackgrass; [7]): 80 | Plant response rating, Morningglory (morningglory [2]; [8]): 60 | Morningglory plant response rating (morningglory [2]; [9]): 90 | Morningglory plant response rating (morningglory [2]; [10]): 60 | Morningglory plant response rating (morningglory [2]; [11]): 100 | Crabgrass, Large plant response rating (crabgrass; [4]): 100 | Crabgrass, Large plant response rating (crabgrass; [5]): 100 | Plant response rating, Crabgrass, Large (crabgrass; [6]): 80 | Crabgrass, Large plant response rating (crabgrass; [7]): 100 | Cupgrass, Woolly plant response rating (woolly cupgrass; [4]): 95 | Cupgrass, Woolly plant response rating (woolly cupgrass; [5]): 98 | Plant response rating, Cupgrass, Woolly (woolly cupgrass; [6]): 70 | Cupgrass, Woolly plant response rating (woolly cupgrass; [7]): 98 | Plant response rating, Sedge, Umbrella (umbrella sedge; 31 g ai/ha, scale 0 to 100 (0 no effect, 100 complete control)): 0 | Plant response rating, Sedge, Umbrella (umbrella sedge; 62 g ai/ha, scale 0 to 100 (0 no effect, 100 complete control)): 0 | Plant response rating, Sedge, Umbrella (umbrella sedge; 125 g ai/ha, scale 0 to 100, 0 no effect, 100 complete control, 13 to 15 days): 50 | Plant response rating, Sedge, Umbrella (umbrella sedge; 250 g ai/ha, scale 0 to 100, 0 no effect, 100 complete control, 13 to 15 days): 75 | Soybean plant response rating (soybean; [4]): 50 | Soybean plant response rating (soybean; [5]): 85 | Plant response rating, Soybean (soybean; [6]): 45 | Soybean plant response rating (soybean; [7]): 95 | Pigweed plant response rating (pigweed; [4]): 100 | Pigweed plant response rating (pigweed; [5]): 100 | Plant response rating, Pigweed (pigweed; [6]): 100 | Pigweed plant response rating (pigweed; [7]): 100 | Foxtail, Green plant response rating (green foxtail; [4]): 95 | Foxtail, Green plant response rating (green foxtail; [5]): 100 | Plant response rating, Foxtail, Green (green foxtail; [6]): 50 | Foxtail, Green plant response rating (green foxtail; [7]): 100 | Nutsedge, Yellow plant response rating (yellow nutsedge; [4]): 80 | Nutsedge, Yellow plant response rating (yellow nutsedge; [5]): 98 | Plant response rating, Nutsedge, Yellow (yellow nutsedge; [6]): 80 | Nutsedge, Yellow plant response rating (yellow nutsedge; [7]): 100 | Cocklebur plant response rating (cocklebur; [4]): 0 | Cocklebur plant response rating (cocklebur; [5]): 0 | Plant response rating, Cocklebur (cocklebur; [6]): 0 | Cocklebur plant response rating (cocklebur; [7]): 60 | Kochia plant response rating (kochia; [4]): 90 | Kochia plant response rating (kochia; [5]): 100 | Plant response rating, Kochia (kochia; [6]): 80 | Kochia plant response rating (kochia; [7]): 100 | Corn plant response rating (corn; [4]): 70 | Corn plant response rating (corn; [5]): 95 | Plant response rating, Corn (corn; [6]): 50 | Corn plant response rating (corn; [7]): 98 | Sunflower plant response rating [3, 4]: 50 | Sunflower plant response rating [3, 5]: 55 | Plant response rating, Sunflower [3, 6]: 50 | Sunflower plant response rating [3, 7]: 75 | Ryegrass, Italian plant response rating (Italian ryegrass; [4]): 0 | Ryegrass, Italian plant response rating (Italian ryegrass; [5]): 0 | Plant response rating, Ryegrass, Italian (Italian ryegrass; [6]): 0 | Ryegrass, Italian plant response rating (Italian ryegrass; [7]): 0 | Plant response rating, Barnyardgrass (barnyardgrass; [8]): 80 | Barnyardgrass plant response rating (barnyardgrass; [9]): 90 | Barnyardgrass plant response rating (barnyardgrass; [10]): 70 | Barnyardgrass plant response rating (barnyardgrass; [11]): 100
